Source: patent publication EP4458352A1, “EICOSAPENTAENOIC ACID ESTER DERIVATIVES FOR THE TREATMENT OF OBESITY” (Technische Universität Dresden, priority 2023, dated 2024)

Key:
[1] = test system: NCI-H295R cells; assay: Lipidomic analysis (LC-MS/MS) of mitochondrial fractions of NCI-H295R cells treated with SC-26196; format: cell-based, Human; conditions: SC-26196 10 µM, 18 h vs DMSO
Experimental: NCI-H295R cells (obtained from ATCC Cat# CRL-2128) were maintained in DMEM/F12 medium supplemented with 2.5 % Nu-Serum type I (Corning), 1 % Insulin Transferrin Selenium (ITS; Gibco), 50 U/mL penicillin and 50 µg/mL streptomycin. They were treated for 18 h with 10 µM SC-26196 or DMSO. In some experiments, NCI-H295R cells were treated or not for 48 h 66 µM EPA and in the last 24 h they were stimulated or not with forskolin (10 µM; Sigma-Aldrich).
Cells were trypsinized and pelleted by centrifugation (500xg, 5 min, 4 °C). The cells were gently resuspended in homogenization buffer (200 mM mannitol, 50 mM sucrose, 10 mM KCI, […] 25 mM HEPES, pH 7.4, 1 µM aprotinin, 10 µM leupeptin, 20 µM PMSF) and homogenized on ice with 20 strokes of tight Dounce homogenizer. The samples were then centrifuged (800xg, 10 min, 4 °C) to pellet the nuclei. The supernatant was mixed with iodixanol solution (Optiprep, Sigma-Aldrich) to a final concentration of 20 %. The samples were placed at the bottom of a tube and overlaid with 500 µl iodixanol solutions (18 %, 16 %, 14 %, 12 %, 10 %, 5 %) and finally with 500 µl of HBS (50 mM HEPES, 150 mM NaCl, pH 7.4). The samples were centrifuged in Beckman SW60Ti swing-out rotor (45,000 rpm, 5 h, 4 °C). After centrifugation fifteen 280 µl aliquots were collected from top of the tubes.
Fractions 10-12 (SDHB-positive) and 4-5 (HSL-positive) were considered as mitochondrial and lipid droplet fractions, respectively. Protein concentration was measured in the mitochondrial and lipid droplet pools with the BCA Protein Assay Kit (Thermo Fisher) and fractions were analyzed for cholesterol and CE concentrations.
Fractions containing mitochondria were combined and extracted with three volumes of ice-cold chloroform/methanol (10:1, v/v, both containing 0.1 % butylated hydroxytoluene (Merck, ≥99 %)). Samples were incubated on ice for 15 min, before the organic phase was collected after centrifugation (5 min, 5,000 × g). The aqueous phase was re-extracted with two volumes chloroform/methanol as described above. Combined organic phases were dried in vacuo. Methanol (ULC-MS grade, Biosolve B.V.) and chloroform (EMSURE ACS, ISO, Reag. Ph Eur; Supleco) were of highest purity.
Lipid extracts were dissolved in 50 µL 2-propanol (ULC/MS-CC/SFC grade, >99.95 %; Biosolve B.V.) and analyzed by LC-MS/MS. Lipids (2.5 µL loaded in positive mode, 5 µL in negative mode) were separated by reverse phase chromatography (Accucore C30 column; 150 mm × 2.1 mm 2.6 µM 150 Å, Thermo Fisher Scientific) using a Vanquish Horizon UHPLC system (Thermo Fisher Scientific) coupled on-line to a Q Exactive Plus Hybrid Quadrupole Orbitrap mass spectrometer (Thermo Fisher Scientific, Bremen, Germany) equipped with a HESI source. Column was operated at 50 °C and flow rate of 0.3 mL/min. […]

[2] = test system: primary adrenocortical cultures; assay: Medulla explant-conditioned medium on primary adrenocortical cell cultures, steroids by LC-MS/MS; format: cell-based, WT C57BL/6J mice
Experimental: Medullas were isolated from WT C57BL/6J mice and transferred into DMEM/F12 medium. Six hours later the medulla explant supernatants were collected and applied onto adrenocortical cell cultures. These were previously treated for 6 h with SC-26196 (10 µM) or DMSO. SC-26196 or DMSO were re-added and adrenocortical cells were incubated for another 18 h until supernatants were collected for steroid measurement. In other experiments, medulla explants were treated for 6 h with SC-26196 (10 µM) or DMSO, washed thoroughly and left another 18 h in culture. Their supernatant was then applied on adrenocortical cell cultures and 8 h later supernatants of the latter were collected and analyzed by LC-MS/MS.
Steroid hormones in plasma and cell culture supernatants were analyzed by LC-MS/MS as previously described (71). Fifty to hundred µL plasma or cell culture supernatants were extracted by solid phase extraction using positive pressure, followed by a dry-down under gentle stream of nitrogen. […] Quantification of steroid concentrations was done by comparisons of ratios of analyte peak areas to respective peak areas of stable isotope labeled internal standards obtained in samples to those of calibrators.

Q: Which results are given for `N#CC(CCCN1CCN(/N=C/c2cccnc2)CC1)(c1ccccc1)c1ccccc1` [SC-26196]?
A: abundance of PC and PE containing PUFA acyl chains in mitochondrial fractions [1]: reduced; lipids with saturated or monounsaturated acyl chains in mitochondrial fractions [1]: increased; mitochondrial lipidome (PCA) ([1]; n=3): reprogramed the mitochondrial lipidome; Cardiolipins in mitochondrial fractions ([1]; not shown): remained unaffected; steroid synthesis in cells receiving medulla-conditioned medium ([2]; adrenocortical cells treated 6 h with SC-26196 10 µM, then conditioned medium for another 18 h, n=4-6): diminished steroid synthesis; increase of progesterone, 11-dehydrocorticosterone and corticosterone production by medulla-conditioned supernatants ([2]; medulla explants treated 6 h with SC-26196 10 µM, washed, 18 h culture, supernatant on adrenocortical cells 8 h, n=8): attenuated
